# Laboratory results taken from patent publication US9695155B2, “Herbicidal substituted pyrimidinyloxy benzene compounds” (E. I. DU PONT DE NEMOURS AND COMPANY, priority 2013, dated 2017).
# What was measured:
# barnyardgrass [1] = experiment: Test A preemergence; format: in vivo, Echinochloa crus-galli; conditions: for Barnyardgrass plant response rating: 500 g ai/ha
# Text: (§1) Seeds of plant species selected from barnyardgrass (Echinochloa crus-galli), kochia (Kochia scoparia), ragweed (common ragweed, Ambrosia elatior), Italian ryegrass (Lolium multiflorum), large (Lg) crabgrass (Digitaria sanguinalis), giant foxtail (Setaria faberii), morningglory (Ipomoea spp.), pigweed (Amaranthus retroflexus), velvetleaf (Abutilon theophrasti), wheat (Triticum aestivum), and corn (Zea mays) were planted into a blend of loam soil and sand and treated preemergence with a directed soil spray using test chemicals formulated in a non-phytotoxic solvent mixture which included a surfactant.
# (§2) At the same time, plants selected from these crop and weed species and also blackgrass (Alopecurus myosuroides), and galium (catchweed bedstraw, Galium aparine) were planted in pots containing the same blend of loam soil and sand and treated with postemergence applications of test chemicals formulated in the same manner. Plants ranged in height from 2 to 10 cm and were in the one- to two-leaf stage for the postemergence treatment. Treated plants and untreated controls were maintained in a greenhouse for approximately 10 days, after which time all treated plants were compared to untreated controls and visually evaluated for injury. Plant response ratings, summarized in Table A, are based on a 0 to 100 scale where 0 is no effect and 100 is complete control. A dash (-) response means no test result.
# large (Lg) crabgrass [2] = experiment: Test A preemergence; format: in vivo, Digitaria sanguinalis; conditions: for Crabgrass, Large plant response rating: 500 g ai/ha
# Text: as §1, §2
# giant foxtail [3] = experiment: Test A preemergence; format: in vivo, Setaria faberii
# In short: (§3)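 Greenhouse pot test, loam/sand soil. Formulation: non-phytotoxic solvent mix plus surfactant. Pre: directed spray onto soil after sowing. Post: plants at 1–2 leaf, 2–10 cm. Rated visually vs untreated controls at ~10 d, 0 (no effect) to 100 (complete control).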
# morningglory [4] = experiment: Test A preemergence; format: in vivo, Ipomoea spp.
# Text: as §1, §2
# pigweed [5] = experiment: Test A preemergence; format: in vivo, Amaranthus retroflexus
# Text: as §1, §2
# velvetleaf [6] = experiment: Test A preemergence; format: in vivo, Abutilon theophrasti
# Text: as §1, §2
# wheat [7] = experiment: Test A preemergence; format: in vivo, Triticum aestivum
# Text: as §1, §2
# corn [8] = experiment: Test A preemergence; format: in vivo, Zea mays; conditions: for Corn plant response rating: 500 g ai/ha
# In short: as §3
# barnyardgrass [9] = experiment: Test A postemergence; format: in vivo, Echinochloa crus-galli
# In short: as §3
# large (Lg) crabgrass [10] = experiment: Test A postemergence; format: in vivo, Digitaria sanguinalis
# In short: as §3
# giant foxtail [11] = experiment: Test A postemergence; format: in vivo, Setaria faberii
# In short: as §3
# morningglory [12] = experiment: Test A postemergence; format: in vivo, Ipomoea spp.
# Text: as §1, §2
# pigweed [13] = experiment: Test A postemergence; format: in vivo, Amaranthus retroflexus
# Text: as §1, §2
# velvetleaf [14] = experiment: Test A postemergence; format: in vivo, Abutilon theophrasti
# Text: as §1, §2
# wheat [15] = experiment: Test A postemergence; format: in vivo, Triticum aestivum
# In short: as §3
# corn [16] = experiment: Test A postemergence; format: in vivo, Zea mays
# In short: as §3
# rice = experiment: Test B flooded paddy test; format: in vivo, Oryza sativa; conditions: Flood, 250 g ai/ha; 0 to 100 scale where 0 is no effect and 100 is complete control
# Protocol: (§4) Plant species in the flooded paddy test selected from rice (Oryza sativa), sedge, umbrella (small-flower umbrella sedge, Cyperus difformis), (Heteranthera limosa), and barnyardgrass (Echinochloa crus-galli) were grown to the 2-leaf stage for testing. At time of treatment, test pots were flooded to 3 cm above the soil surface, treated by application of test compounds directly to the paddy water, and then maintained at that water depth for the duration of the test. Treated plants and controls were maintained in a greenhouse for 13 to 15 days, after which time all species were compared to controls and visually evaluated. Plant response ratings, summarized in Table B, are based on a scale of 0 to 100 where 0 is no effect and 100 is complete control. A dash (-) response means no test result.
# sedge, umbrella = experiment: Test B flooded paddy test; format: in vivo, Cyperus difformis; conditions: Flood, 250 g ai/ha; 0 to 100 scale where 0 is no effect and 100 is complete control
# Protocol: as §4
# Heteranthera limosa = experiment: Test B flooded paddy test; format: in vivo; conditions: Flood, 250 g ai/ha; 0 to 100 scale where 0 is no effect and 100 is complete control
# Protocol: as §4
# barnyardgrass [17] = experiment: Test B flooded paddy test; format: in vivo, Echinochloa crus-galli; conditions: Flood, 250 g ai/ha; 0 to 100 scale where 0 is no effect and 100 is complete control
# Protocol: as §4
# [18] = 1000 g ai/ha, 0 to 100 scale, 0 no effect, 100 complete control
# [19] = 1000 g ai/ha, 0 to 100 scale, 0 no effect, 100 complete control, approx. 10 days
# [20] = 0 to 100 scale where 0 is no effect and 100 is complete control
# [21] = 500 g ai/ha, 0 to 100 scale where 0 is no effect and 100 is complete control
# [22] = 125 g ai/ha, 0 to 100 scale where 0 is no effect and 100 is complete control
# [23] = 0 to 100 scale, 0 no effect, 100 complete control, approx. 10 days
# [24] = 500 g ai/ha, 0 to 100 scale, 0 no effect, 100 complete control, approx. 10 days
# [25] = 500 g ai/ha, 0 to 100 scale, 0 no effect, 100 complete control
structure (smiles),measurement,setting,value
Clc1cnc(Oc2cccc(I)c2-n2cc(Br)cn2)nc1 [Compound 66],"Plant response rating, Barnyardgrass",barnyardgrass [1]; [18],90
same,"Plant response rating, Crabgrass, Large",large (Lg) crabgrass [2]; [18],100
same,"Foxtail, Giant plant response rating",giant foxtail [3]; [19],100
same,Morningglory plant response rating,morningglory [4]; [19],40
same,Pigweed plant response rating,pigweed [5]; [19],100
same,Velvetleaf plant response rating,velvetleaf [6]; [19],90
same,Wheat plant response rating,wheat [7]; [19],10
same,"Plant response rating, Corn",corn [8]; [18],30
same,"Plant response rating, Barnyardgrass",barnyardgrass [9]; [18],80
same,"Plant response rating, Crabgrass, Large",large (Lg) crabgrass [10]; [18],100
same,"Plant response rating, Foxtail, Giant",giant foxtail [11]; [18],100
same,"Plant response rating, Morningglory",morningglory [12]; [18],100
same,"Plant response rating, Pigweed",pigweed [13]; [18],100
same,"Plant response rating, Velvetleaf",velvetleaf [14]; [18],100
same,"Plant response rating, Wheat",wheat [15]; [18],20
same,"Plant response rating, Corn",corn [16]; [18],40
same,"Plant response rating, Rice",rice,0
same,"Plant response rating, Sedge, Umbrella","sedge, umbrella",0
same,"Plant response rating, Ducksalad",Heteranthera limosa,30
same,"Plant response rating, Barnyardgrass",barnyardgrass [17],0
FC(F)c1cccc(Oc2ncc(Br)cn2)c1-n1cc(Cl)cn1 [Compound 210],"Barnyardgrass plant response rating (0 to 100 scale, 0 is no effect, 100 is complete control)",barnyardgrass [1]; 125 g ai/ha,10
same,Barnyardgrass plant response rating,barnyardgrass [1]; [20],70
same,"Crabgrass, Large plant response rating (0 to 100 scale)",large (Lg) crabgrass [2]; 125 g ai/ha,100
same,"Crabgrass, Large plant response rating",large (Lg) crabgrass [2]; [20],100
same,"Foxtail, Giant plant response rating (0 to 100 scale)",giant foxtail [3]; 125 g ai/ha,100
same,"Foxtail, Giant plant response rating",giant foxtail [3]; [21],100
same,Morningglory plant response rating (0 to 100 scale),morningglory [4]; 125 g ai/ha,0
same,Morningglory plant response rating,morningglory [4]; [21],0
same,Pigweed plant response rating (0 to 100 scale),pigweed [5]; 125 g ai/ha,100
same,Pigweed plant response rating,pigweed [5]; [21],100
same,Velvetleaf plant response rating (0 to 100 scale),velvetleaf [6]; 125 g ai/ha,20
same,Velvetleaf plant response rating,velvetleaf [6]; [21],60
same,Wheat plant response rating (0 to 100 scale),wheat [7]; 125 g ai/ha,0
same,Wheat plant response rating,wheat [7]; [21],0
same,Corn plant response rating (0 to 100 scale),corn [8]; 125 g ai/ha,0
same,Corn plant response rating,corn [8]; [20],0
same,Barnyardgrass plant response rating,barnyardgrass [9]; [22],20
same,"Plant response rating, Barnyardgrass",barnyardgrass [9]; [21],40
same,"Crabgrass, Large plant response rating",large (Lg) crabgrass [10]; [22],40
same,"Plant response rating, Crabgrass, Large",large (Lg) crabgrass [10]; [21],70
same,"Foxtail, Giant plant response rating",giant foxtail [11]; [22],30
same,"Plant response rating, Foxtail, Giant",giant foxtail [11]; [21],60
same,Morningglory plant response rating,morningglory [12]; [22],20
same,"Plant response rating, Morningglory",morningglory [12]; [21],30
same,Pigweed plant response rating,pigweed [13]; [22],100
same,"Plant response rating, Pigweed",pigweed [13]; [21],100
same,Velvetleaf plant response rating,velvetleaf [14]; [22],60
same,"Plant response rating, Velvetleaf",velvetleaf [14]; [21],80
same,Wheat plant response rating,wheat [15]; [22],0
same,"Plant response rating, Wheat",wheat [15]; [21],0
same,Corn plant response rating,corn [16]; [22],10
same,"Plant response rating, Corn",corn [16]; [21],30
same,"Plant response rating, Rice",rice,15
same,"Plant response rating, Sedge, Umbrella","sedge, umbrella",60
same,"Plant response rating, Ducksalad",Heteranthera limosa,75
same,"Plant response rating, Barnyardgrass",barnyardgrass [17],0
Cc1cccc(Oc2ncc(Cl)cn2)c1-n1cc(Br)cn1 [Compound 44],"Plant response rating, Barnyardgrass",barnyardgrass [1]; [22],50
same,Barnyardgrass plant response rating,barnyardgrass [1]; [23],100
same,"Plant response rating, Crabgrass, Large",large (Lg) crabgrass [2]; [22],90
same,"Crabgrass, Large plant response rating",large (Lg) crabgrass [2]; [23],100
same,"Plant response rating, Foxtail, Giant",giant foxtail [3]; [22],60
same,"Foxtail, Giant plant response rating",giant foxtail [3]; [24],100
same,"Plant response rating, Morningglory",morningglory [4]; [22],50
same,Morningglory plant response rating,morningglory [4]; [24],60
same,"Plant response rating, Pigweed",pigweed [5]; [22],100
same,Pigweed plant response rating,pigweed [5]; [24],100
same,"Plant response rating, Velvetleaf",velvetleaf [6]; [22],70
same,Velvetleaf plant response rating,velvetleaf [6]; [24],100
same,"Plant response rating, Wheat",wheat [7]; [22],0
same,Wheat plant response rating,wheat [7]; [24],20
same,"Plant response rating, Corn",corn [8]; [22],0
same,Corn plant response rating,corn [8]; [23],20
same,"Plant response rating, Barnyardgrass",barnyardgrass [9]; [22],30
same,"Plant response rating, Barnyardgrass",barnyardgrass [9]; [25],90
same,"Plant response rating, Crabgrass, Large",large (Lg) crabgrass [10]; [22],80
same,"Plant response rating, Crabgrass, Large",large (Lg) crabgrass [10]; [25],100
same,"Plant response rating, Foxtail, Giant",giant foxtail [11]; [22],50
same,"Plant response rating, Foxtail, Giant",giant foxtail [11]; [25],90
same,"Plant response rating, Morningglory",morningglory [12]; [22],20
same,"Plant response rating, Morningglory",morningglory [12]; [25],60
same,"Plant response rating, Pigweed",pigweed [13]; [22],70
same,"Plant response rating, Pigweed",pigweed [13]; [25],100
same,"Plant response rating, Velvetleaf",velvetleaf [14]; [22],100
same,"Plant response rating, Velvetleaf",velvetleaf [14]; [25],100
same,"Plant response rating, Wheat",wheat [15]; [22],0
same,"Plant response rating, Wheat",wheat [15]; [25],30
same,"Plant response rating, Corn",corn [16]; [22],20
same,"Plant response rating, Corn",corn [16]; [25],40
same,"Plant response rating, Rice",rice,45
same,"Plant response rating, Sedge, Umbrella","sedge, umbrella",90
same,"Plant response rating, Ducksalad",Heteranthera limosa,100
same,"Plant response rating, Barnyardgrass",barnyardgrass [17],20
N#Cc1cnn(-c2ccccc2Oc2ncc(Cl)cn2)c1 [Compound 33],"Plant response rating, Barnyardgrass",barnyardgrass [1]; [22],0
same,Barnyardgrass plant response rating,barnyardgrass [1]; [23],70
same,"Plant response rating, Crabgrass, Large",large (Lg) crabgrass [2]; [22],90
same,"Crabgrass, Large plant response rating",large (Lg) crabgrass [2]; [23],100
same,"Plant response rating, Foxtail, Giant",giant foxtail [3]; [22],90
same,"Foxtail, Giant plant response rating",giant foxtail [3]; [24],100
same,"Plant response rating, Pigweed",pigweed [5]; [22],100
same,Pigweed plant response rating,pigweed [5]; [24],100
same,"Plant response rating, Velvetleaf",velvetleaf [6]; [22],50
same,Velvetleaf plant response rating,velvetleaf [6]; [24],100
same,"Plant response rating, Wheat",wheat [7]; [22],0
same,Wheat plant response rating,wheat [7]; [24],0
same,"Plant response rating, Corn",corn [8]; [22],0
same,Corn plant response rating,corn [8]; [23],0
same,"Plant response rating, Barnyardgrass",barnyardgrass [9]; [22],0
same,"Plant response rating, Barnyardgrass",barnyardgrass [9]; [25],100
same,"Plant response rating, Crabgrass, Large",large (Lg) crabgrass [10]; [22],20
same,"Plant response rating, Crabgrass, Large",large (Lg) crabgrass [10]; [25],80
same,"Plant response rating, Foxtail, Giant",giant foxtail [11]; [22],70
same,"Plant response rating, Foxtail, Giant",giant foxtail [11]; [25],100
same,"Plant response rating, Pigweed",pigweed [13]; [22],100
same,"Plant response rating, Pigweed",pigweed [13]; [25],100
same,"Plant response rating, Velvetleaf",velvetleaf [14]; [22],100
same,"Plant response rating, Velvetleaf",velvetleaf [14]; [25],100
same,"Plant response rating, Wheat",wheat [15]; [22],0
same,"Plant response rating, Wheat",wheat [15]; [25],90
same,"Plant response rating, Corn",corn [16]; [22],0
same,"Plant response rating, Corn",corn [16]; [25],100
same,"Plant response rating, Rice",rice,0
same,"Plant response rating, Sedge, Umbrella","sedge, umbrella",20
same,"Plant response rating, Ducksalad",Heteranthera limosa,80
same,"Plant response rating, Barnyardgrass",barnyardgrass [17],10
